Source: ChEMBL document CHEMBL4316586, “A comprehensive review of salinomycin derivatives as potent anticancer and anti-CSCs agents” (Eur J Med Chem, 2019)
One block for each compound: values may come before it.

Key:
JIMT-1 [1] = experiment: Antiproliferative activity against human JIMT1 cells by MTT assay; type: functional, cell-based
MCF7 [2] = experiment: Antiproliferative activity against human MCF7 cells by MTT assay; type: functional, cell-based
HT-29 [3] = experiment: Antiproliferative activity against human HT-29 cells by MTT assay; type: functional, cell-based
HGC-27 [4] = experiment: Antiproliferative activity against human HGC27 cells by MTT assay; type: functional, cell-based
MDA-MB-231 [5] = experiment: Antiproliferative activity against human MDA-MB-231 cells by MTT assay; type: functional, cell-based
HT-29 [6] = experiment: Antiproliferative activity against human HT-29 cells after 48 hrs by MTT assay; type: functional, cell-based; settings: HT-29, 48 h
HGC-27 [7] = experiment: Antiproliferative activity against human HGC27 cells after 48 hrs by MTT assay; type: functional, cell-based; settings: HGC-27, 48 h
MDA-MB-231 [8] = experiment: Antiproliferative activity against human MDA-MB-231 cells after 48 hrs by MTT assay; type: functional, cell-based; settings: MDA-MB-231, 48 h
JIMT-1 [9] = experiment: Antiproliferative activity against human JIMT1 cells; type: functional, cell-based
MCF7 [10] = experiment: Antiproliferative activity against human MCF7 cells; type: functional, cell-based
U-87 MG = experiment: Antiproliferative activity against human U87 cells by MTT assay; type: functional, cell-based, U-87MG ATCC
HeLa = experiment: Antiproliferative activity against human HeLa cells by MTT assay; type: functional, cell-based
Caco-2 = experiment: Antiproliferative activity against human Caco2 cells by MTT assay; type: functional, cell-based

Structure (SMILES): CC[C@@H](C(=O)[C@@H](C)[C@@H](O)[C@H](C)[C@@H]1O[C@@H]([C@@H](CC)C(=O)O)CC[C@@H]1C)[C@H]1O[C@]2(C=C[C@@H](OC(=O)C(C)C)[C@]3(CC[C@@](C)([C@H]4CC[C@](O)(CC)[C@H](C)O4)O3)O2)[C@H](C)C[C@@H]1C
IC50 (JIMT-1 [1]): 150 nM
IC50 (MCF7 [2]): 190 nM

Structure (SMILES): CC[C@@H](C(=O)[C@@H](C)[C@@H](O)[C@H](C)[C@@H]1O[C@@H]([C@@H](CC)C(=O)O)CC[C@@H]1C)[C@H]1O[C@]2(C=C[C@@H](OC(=O)C(C)(C)C)[C@]3(CC[C@@](C)([C@H]4CC[C@](O)(CC)[C@H](C)O4)O3)O2)[C@H](C)C[C@@H]1C
IC50 (JIMT-1 [1]): 230 nM
IC50 (MCF7 [2]): 170 nM

Structure (SMILES): CC[C@@H](C(=O)[C@@H](C)[C@@H](O)[C@H](C)[C@@H]1O[C@@H]([C@@H](CC)C(=O)O)CC[C@@H]1C)[C@H]1O[C@]2(C=C[C@H](OC(C)=O)[C@]3(CC[C@@](C)([C@H]4CC[C@](O)(CC)[C@H](C)O4)O3)O2)[C@H](C)C[C@@H]1C
IC50 (HT-29 [3]): 800 nM
IC50 (HGC-27 [4]): 940 nM
IC50 (MDA-MB-231 [5]): 1960 nM

Structure (SMILES): CC[C@@H](C(=O)[C@@H](C)[C@@H](O)[C@H](C)[C@@H]1O[C@@H]([C@@H](CC)C(=O)O)CC[C@@H]1C)[C@H]1O[C@]2(C=C[C@@H](OC(=O)NC(C)(C)C)[C@]3(CC[C@@](C)([C@H]4CC[C@](O)(CC)[C@H](C)O4)O3)O2)[C@H](C)C[C@@H]1C
IC50 (JIMT-1 [1]): 380 nM
IC50 (MCF7 [2]): 420 nM

Structure (SMILES): CC[C@@H](C(=O)[C@@H](C)[C@@H](O)[C@H](C)[C@@H]1O[C@@H]([C@@H](CC)C(=O)O)CC[C@@H]1C)[C@H]1O[C@@]2(C=C[C@@H](O)[C@@]3(CC[C@@](C)([C@H]4CC[C@](O)(CC)[C@H](C)O4)O3)O2)[C@H](C)C[C@@H]1C
IC50 (HT-29 [6]): 750 nM
IC50 (HGC-27 [7]): 620 nM
IC50 (MDA-MB-231 [8]): 5700 nM

Structure (SMILES): CC[C@@H](C(=O)[C@@H](C)[C@@H](O)[C@H](C)[C@@H]1O[C@@H]([C@@H](CC)C(=O)O)CC[C@@H]1C)[C@H]1O[C@]2(C=C[C@@H](OC(C)=O)[C@]3(CC[C@@](C)([C@H]4CC[C@](O)(CC)[C@H](C)O4)O3)O2)[C@H](C)C[C@@H]1C
IC50 (JIMT-1 [1]): 110 nM
IC50 (MCF7 [2]): 110 nM

Structure (SMILES): CC[C@@H]([C@H](O)[C@@H](C)[C@@H](O)[C@H](C)[C@@H]1O[C@@H]([C@@H](CC)C(=O)O)CC[C@@H]1C)[C@H]1O[C@]2(C=C[C@@H](O)[C@]3(CC[C@@](C)([C@H]4CC[C@](O)(CC)[C@H](C)O4)O3)O2)[C@H](C)C[C@@H]1C
IC50 (JIMT-1 [9]): 15600 nM
IC50 (MCF7 [10]): 12500 nM

Structure (SMILES): CCC(=O)O[C@H]1C=C[C@]2(O[C@H]([C@@H](CC)C(=O)[C@@H](C)[C@@H](O)[C@H](C)[C@@H]3O[C@@H]([C@@H](CC)C(=O)O)CC[C@@H]3C)[C@@H](C)C[C@H]2C)O[C@@]12CC[C@@](C)([C@H]1CC[C@](O)(CC)[C@H](C)O1)O2
IC50 (HT-29 [3]): 840 nM
IC50 (HGC-27 [4]): 890 nM
IC50 (MDA-MB-231 [5]): 1890 nM

Second part, led by results:

IC50 (U-87 MG): 16600 nM
IC50 (HeLa): 290 nM
IC50 (Caco-2): 440 nM
Structure (SMILES): CC[C@@H](C(=O)[C@@H](C)[C@@H](O)[C@H](C)[C@@H]1O[C@@H]([C@@H](CC)C(=O)O)CC[C@@H]1C)[C@H]1O[C@]2(C=C[C@H](n3cc(COC(C(F)(F)F)(C(F)(F)F)C(F)(F)F)nn3)[C@]3(CC[C@@](C)([C@H]4CC[C@](O)(CC)[C@H](C)O4)O3)O2)[C@H](C)C[C@@H]1C

IC50 (U-87 MG): 15700 nM
IC50 (HeLa): 610 nM
IC50 (Caco-2): 3310 nM
Structure (SMILES): CC[C@@H](C(=O)[C@@H](C)[C@@H](O)[C@H](C)[C@@H]1O[C@@H]([C@@H](CC)C(=O)O)CC[C@@H]1C)[C@H]1O[C@]2(C=C[C@H](n3cc(-c4ccccn4)nn3)[C@]3(CC[C@@](C)([C@H]4CC[C@](O)(CC)[C@H](C)O4)O3)O2)[C@H](C)C[C@@H]1C

IC50 (HT-29 [3]): 160 nM
IC50 (MDA-MB-231 [5]): 790 nM
Structure (SMILES): CC[C@@H](C(=O)[C@@H](C)[C@@H](O)[C@H](C)[C@@H]1O[C@@H]([C@@H](CC)C(=O)O)CC[C@@H]1C)[C@H]1O[C@]2(C=C[C@H](OC(=O)c3ccc(F)cc3)[C@]3(CC[C@@](C)([C@H]4CC[C@](O)(CC)[C@H](C)O4)O3)O2)[C@H](C)C[C@@H]1C
IC50 (HGC-27 [4]): 280 nM

IC50 (U-87 MG): 18900 nM
IC50 (HeLa): 2010 nM
IC50 (Caco-2): 1820 nM
Structure (SMILES): CC[C@@H](C(=O)[C@@H](C)[C@@H](O)[C@H](C)[C@@H]1O[C@@H]([C@@H](CC)C(=O)O)CC[C@@H]1C)[C@H]1O[C@]2(C=C[C@H](n3cc(-c4ccc(C(C)(C)C)cc4)nn3)[C@]3(CC[C@@](C)([C@H]4CC[C@](O)(CC)[C@H](C)O4)O3)O2)[C@H](C)C[C@@H]1C

IC50 (MCF7 [2]): 200 nM
Structure (SMILES): CC[C@@H](C(=O)[C@@H](C)[C@@H](O)[C@H](C)[C@@H]1O[C@@H]([C@@H](CC)C(=O)O)CC[C@@H]1C)[C@H]1O[C@]2(C=C[C@@H](OC(=O)c3ccccc3)[C@]3(CC[C@@](C)([C@H]4CC[C@](O)(CC)[C@H](C)O4)O3)O2)[C@H](C)C[C@@H]1C
IC50 (JIMT-1 [1]): 360 nM
